Values quoted from earlier work as cited in patent US20230165838A1, “TREATMENT FOR ACUTE RESPIRATORY DISTRESS SYNDROME” (DIMERIX BIOSCIENCE LTD., priority 2020, published 2023).

Test system: monocytes
Conditions: MCP-1 induced; mechanism seems to require GPI-anchored proteins such as CD55, CD59 and CD16 (Yokochi, S. 2001)

O=C(O)C[CH2][Ge](=[O])[O][Ge](=[O])[CH2]CC(=O)O [Propagermanium, 3-[(2-Carboxyethyl-oxogermyl)oxy-oxogermyl]propanoic acid]
in vitro chemotactic migration of monocytes by MCP-1: specifically inhibit
